According to paper PMC3694096, “Development of Novel In Vivo Chemical Probes to Address CNS Protein Kinase Involvement in Synaptic Dysfunction” (PLoS ONE, 2013):
≈ marks a conversion by molar mass, not a printed value. Like-named read-outs stand apart in the source and are kept apart here.

What was measured:
IRR = biological target: T1, IRR (Homo sapiens, UniProt P14616); experiment: Kinome profiler screen; type: biochemical; details: at 20,000 nM inhibitor; kinase activity remaining
T1 construct: purchased Millipore KinaseProfiler

LOK = biological target: T2, LOK (Homo sapiens, UniProt O94804); experiment: Kinome profiler screen; type: biochemical; details: for activity at 20 µM: at 20,000 nM inhibitor, kinase activity remaining
T2 construct: purchased Millipore

GRK6 = biological target: T3, GRK6 (Homo sapiens, UniProt P43250); experiment: Kinome profiler screen; type: biochemical
T3 construct: purchased Millipore KinaseProfiler

mTOR/FKBP12 = biological target: T4, mTOR/FKBP12 (Homo sapiens, UniProt P42345); experiment: Kinome profiler screen; type: biochemical; details: at 20,000 nM inhibitor; kinase activity remaining
T4 construct: purchased Millipore KinaseProfiler

EphA1 = biological target: T5, EphA1 (Homo sapiens, UniProt P21709); experiment: Kinome profiler screen; type: biochemical; details: at 20,000 nM inhibitor; kinase activity remaining
T5 construct: purchased Millipore KinaseProfiler

Aqueous solubility = type: physicochemical; details: for solubility at 24 h: 37 °C, water, thermodynamic from solid
Experimental: Aqueous solubility (logS) and chemical stability were determined as previously described. Briefly, solutions for aqueous solubility (log S) determination were made by gravimetric methods using a Sartorius AG (Germany) BP 211 D analytical balance. Dry borosilicate capillary tubes (Büchi, Switzerland) were weighed and various amounts of compound (ranging from 1.2–1.5 mg) or the hydrochloride hydrate form (ranging from 10–20 mg) were added to the tared tubes, then water added to create solutions ranging in concentrations from […]. Tubes containing the samples were mixed to ensure wetting and incubated at 37°C for 24 h. Aliquots were collected from each tube, centrifuged at 12,000 g-min, and analyzed by HPLC. Concentrations were calculated using area under the peak (260 nm) at the appropriate retention time relative to a standard curve obtained from serial dilutions of each purified compound. […]. The co-solvent was methanol, experimental pH range was 1.7–10.0, temperature was 22±2°C, ionic strength was 0.15 M KCl. Five titrations were used to calculate the pKa using the Yasuda-Shedlovsky technique. […].

JAK3 = biological target: T6, JAK3 (Homo sapiens, UniProt P52333); experiment: Kinome profiler screen; type: biochemical; details: at 20,000 nM inhibitor; kinase activity remaining
T6 construct: purchased Millipore KinaseProfiler

Pim-2 = biological target: T7, Pim-2 (Homo sapiens, UniProt Q9P1W9); experiment: Kinome profiler screen; type: biochemical; details: at 20,000 nM inhibitor; kinase activity remaining
T7 construct: purchased Millipore KinaseProfiler

PDGFRα(V561D) = biological target: T8, PDGFRα(V561D) (Homo sapiens, UniProt P16234, V561D); experiment: Kinome profiler screen; type: biochemical
T8 construct: purchased Millipore KinaseProfiler

Abl (Q252H) = biological target: T9, Abl (Q252H) (Homo sapiens, UniProt P00519, Q252H); experiment: Kinome profiler screen; type: biochemical; details: at 20,000 nM inhibitor; kinase activity remaining
T9 construct: purchased Millipore KinaseProfiler

PKA = biological target: T10, PKA (Homo sapiens, UniProt P17612); experiment: Kinome profiler screen; type: biochemical; details: at 20,000 nM inhibitor; kinase activity remaining
T10 construct: purchased Millipore KinaseProfiler

[1] = test system: sensory perception of electric shock; experiment: Sensory threshold assessment; type: in vivo, C57BL/6J mice; details: control test
PIP5K1α = biological target: T11, PIP5K1α (Homo sapiens, UniProt Q99755); experiment: Kinome profiler screen; type: biochemical; details: at 20,000 nM inhibitor; kinase activity remaining
T11 construct: purchased Millipore KinaseProfiler

FAK = biological target: T12, FAK (Homo sapiens, UniProt Q05397); experiment: Kinome profiler screen; type: biochemical; details: at 20,000 nM inhibitor; kinase activity remaining
T12 construct: purchased Millipore KinaseProfiler

EGFR(L861Q) = biological target: T13, EGFR(L861Q) (Homo sapiens, UniProt P00533, L861Q); experiment: Kinome profiler screen; type: biochemical; details: at 20,000 nM inhibitor; kinase activity remaining
T13 construct: purchased Millipore KinaseProfiler

Met(Y1248D) = biological target: T14, Met(Y1248D) (Homo sapiens, UniProt P08581, Y1230D); experiment: Kinome profiler screen; type: biochemical; details: at 20,000 nM inhibitor; kinase activity remaining
T14 construct: purchased Millipore KinaseProfiler

Flt3(D835Y) = biological target: T15, Flt3(D835Y) (Homo sapiens, UniProt P36888, D835Y); experiment: Kinome profiler screen; type: biochemical; details: at 20,000 nM inhibitor; kinase activity remaining
T15 construct: purchased Millipore KinaseProfiler

GSK3α = biological target: T16, GSK3α (Homo sapiens, UniProt P49840); experiment: Kinome profiler screen; type: biochemical; details: at 20,000 nM inhibitor; kinase activity remaining
T16 construct: purchased Millipore KinaseProfiler

PKCη = biological target: T17, PKCη (Homo sapiens, UniProt P24723); experiment: Kinome profiler screen; type: biochemical; details: at 20,000 nM inhibitor; kinase activity remaining
T17 construct: purchased Millipore KinaseProfiler

IGF-1R, activated = biological target: T18, IGF-1R, activated (Homo sapiens, UniProt P08069); experiment: Kinome profiler screen; type: biochemical; details: at 20,000 nM inhibitor; kinase activity remaining
T18 construct: purchased Millipore KinaseProfiler

ZIPK = biological target: T19, ZIPK (Homo sapiens, UniProt O43293); experiment: Kinome profiler screen; type: biochemical; details: at 20,000 nM inhibitor; kinase activity remaining
T19 construct: purchased Millipore KinaseProfiler

MEK1 = biological target: T20, MEK1 (Homo sapiens, UniProt Q02750); experiment: Kinome profiler screen; type: biochemical; details: at 20,000 nM inhibitor; kinase activity remaining
T20 construct: purchased Millipore KinaseProfiler

[2] = biological target: T21, PI3 Kinase (p110 β/p85β)(m) (Mus musculus, UniProt Q8BTI9); experiment: Kinome profiler screen; type: biochemical; details: at 20,000 nM inhibitor; kinase activity remaining
T21 construct: purchased Millipore KinaseProfiler

FGFR1(V561M) = biological target: T22, FGFR1(V561M) (Homo sapiens, UniProt P11362, V561M); experiment: Kinome profiler screen; type: biochemical; details: at 20,000 nM inhibitor; kinase activity remaining
T22 construct: purchased Millipore KinaseProfiler

PKBβ = biological target: T23, PKBβ (Homo sapiens, UniProt P31751); experiment: Kinome profiler screen; type: biochemical; details: at 20,000 nM inhibitor; kinase activity remaining
T23 construct: purchased Millipore KinaseProfiler

Rsk2 = biological target: T24, Rsk2 (Homo sapiens, UniProt P51812); experiment: Kinome profiler screen; type: biochemical; details: at 20,000 nM inhibitor; kinase activity remaining
T24 construct: purchased Millipore KinaseProfiler

BTK = biological target: T25, BTK (Homo sapiens, UniProt Q06187); experiment: Kinome profiler screen; type: biochemical; details: at 20,000 nM inhibitor; kinase activity remaining
T25 construct: purchased Millipore KinaseProfiler

ACK1 = biological target: T26, ACK1 (Homo sapiens, UniProt Q07912); experiment: Kinome profiler screen; type: biochemical; details: at 20,000 nM inhibitor; kinase activity remaining
T26 construct: purchased Millipore KinaseProfiler

Fms(Y969C) = biological target: T27, Fms(Y969C) (Homo sapiens, UniProt P07333, Y969C); experiment: Kinome profiler screen; type: biochemical; details: at 20,000 nM inhibitor; kinase activity remaining
T27 construct: purchased Millipore KinaseProfiler

PDGFRα(D842V) = biological target: T28, PDGFRα(D842V) (Homo sapiens, UniProt P16234, D842V); experiment: Kinome profiler screen; type: biochemical; details: at 20,000 nM inhibitor; kinase activity remaining
T28 construct: purchased Millipore KinaseProfiler

Lyn(m) = biological target: T29, Lyn(m) (Mus musculus, UniProt P25911); experiment: Kinome profiler screen; type: biochemical; details: at 20,000 nM inhibitor; kinase activity remaining
T29 construct: purchased Millipore KinaseProfiler

MAPKAP-K2 = biological target: T30, MAPKAP-K2 (Homo sapiens, UniProt P49137); experiment: Kinome profiler screen; type: biochemical; details: at 20,000 nM inhibitor; kinase activity remaining
T30 construct: purchased Millipore KinaseProfiler

EGFR = biological target: T31, EGFR (Homo sapiens, UniProt P00533); experiment: Kinome profiler screen; type: biochemical; details: at 20,000 nM inhibitor; kinase activity remaining
T31 construct: purchased Millipore KinaseProfiler

CLK3 = biological target: T32, CLK3 (Homo sapiens, UniProt P49761); experiment: Kinome profiler screen; type: biochemical; details: at 20,000 nM inhibitor; kinase activity remaining
T32 construct: purchased Millipore KinaseProfiler

Fgr = biological target: T33, Fgr (Homo sapiens, UniProt P09769); experiment: Kinome profiler screen; type: biochemical; details: at 20,000 nM inhibitor; kinase activity remaining
T33 construct: purchased Millipore KinaseProfiler

EphA3 = biological target: T34, EphA3 (Homo sapiens, UniProt P29320); experiment: Kinome profiler screen; type: biochemical; details: at 20,000 nM inhibitor; kinase activity remaining
T34 construct: purchased Millipore KinaseProfiler

[3] = at 20,000 nM inhibitor, kinase activity remaining, read-out: % Activity

T2 sequence (O94804 whole entry): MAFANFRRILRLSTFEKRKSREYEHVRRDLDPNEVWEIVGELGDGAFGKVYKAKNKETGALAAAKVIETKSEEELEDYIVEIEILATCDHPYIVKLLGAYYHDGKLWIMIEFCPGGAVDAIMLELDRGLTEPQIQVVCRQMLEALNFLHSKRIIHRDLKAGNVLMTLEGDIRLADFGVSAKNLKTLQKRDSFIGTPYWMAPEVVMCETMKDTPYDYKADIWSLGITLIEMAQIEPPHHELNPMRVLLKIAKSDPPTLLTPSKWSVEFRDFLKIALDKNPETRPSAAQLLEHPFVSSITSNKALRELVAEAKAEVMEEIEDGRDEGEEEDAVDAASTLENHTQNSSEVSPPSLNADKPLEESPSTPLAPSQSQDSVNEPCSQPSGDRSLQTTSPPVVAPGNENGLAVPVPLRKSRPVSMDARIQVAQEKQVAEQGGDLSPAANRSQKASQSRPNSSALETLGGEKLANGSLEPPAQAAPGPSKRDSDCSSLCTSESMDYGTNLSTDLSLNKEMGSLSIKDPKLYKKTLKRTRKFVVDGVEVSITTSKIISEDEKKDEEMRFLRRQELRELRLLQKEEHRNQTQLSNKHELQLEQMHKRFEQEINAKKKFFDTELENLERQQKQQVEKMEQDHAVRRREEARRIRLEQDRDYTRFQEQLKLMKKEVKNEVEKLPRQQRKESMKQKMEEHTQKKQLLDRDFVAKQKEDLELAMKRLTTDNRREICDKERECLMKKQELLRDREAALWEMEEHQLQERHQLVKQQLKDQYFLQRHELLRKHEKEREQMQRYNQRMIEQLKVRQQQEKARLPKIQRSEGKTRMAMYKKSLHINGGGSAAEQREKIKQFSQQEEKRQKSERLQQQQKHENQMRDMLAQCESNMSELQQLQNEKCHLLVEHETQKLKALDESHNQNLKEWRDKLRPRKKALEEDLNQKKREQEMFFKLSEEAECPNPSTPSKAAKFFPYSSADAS
T20 sequence (Q02750 whole entry): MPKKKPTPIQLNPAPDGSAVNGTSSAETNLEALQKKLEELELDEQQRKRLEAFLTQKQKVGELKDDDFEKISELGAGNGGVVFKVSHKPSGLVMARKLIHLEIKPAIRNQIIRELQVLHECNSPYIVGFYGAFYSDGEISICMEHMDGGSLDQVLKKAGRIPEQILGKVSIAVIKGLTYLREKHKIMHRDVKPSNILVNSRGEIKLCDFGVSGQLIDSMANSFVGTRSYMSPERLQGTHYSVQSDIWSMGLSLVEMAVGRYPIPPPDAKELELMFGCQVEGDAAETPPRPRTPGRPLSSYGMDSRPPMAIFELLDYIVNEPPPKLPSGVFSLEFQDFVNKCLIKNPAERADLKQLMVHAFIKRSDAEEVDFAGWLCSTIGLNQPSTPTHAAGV
T26 sequence (Q07912 whole entry): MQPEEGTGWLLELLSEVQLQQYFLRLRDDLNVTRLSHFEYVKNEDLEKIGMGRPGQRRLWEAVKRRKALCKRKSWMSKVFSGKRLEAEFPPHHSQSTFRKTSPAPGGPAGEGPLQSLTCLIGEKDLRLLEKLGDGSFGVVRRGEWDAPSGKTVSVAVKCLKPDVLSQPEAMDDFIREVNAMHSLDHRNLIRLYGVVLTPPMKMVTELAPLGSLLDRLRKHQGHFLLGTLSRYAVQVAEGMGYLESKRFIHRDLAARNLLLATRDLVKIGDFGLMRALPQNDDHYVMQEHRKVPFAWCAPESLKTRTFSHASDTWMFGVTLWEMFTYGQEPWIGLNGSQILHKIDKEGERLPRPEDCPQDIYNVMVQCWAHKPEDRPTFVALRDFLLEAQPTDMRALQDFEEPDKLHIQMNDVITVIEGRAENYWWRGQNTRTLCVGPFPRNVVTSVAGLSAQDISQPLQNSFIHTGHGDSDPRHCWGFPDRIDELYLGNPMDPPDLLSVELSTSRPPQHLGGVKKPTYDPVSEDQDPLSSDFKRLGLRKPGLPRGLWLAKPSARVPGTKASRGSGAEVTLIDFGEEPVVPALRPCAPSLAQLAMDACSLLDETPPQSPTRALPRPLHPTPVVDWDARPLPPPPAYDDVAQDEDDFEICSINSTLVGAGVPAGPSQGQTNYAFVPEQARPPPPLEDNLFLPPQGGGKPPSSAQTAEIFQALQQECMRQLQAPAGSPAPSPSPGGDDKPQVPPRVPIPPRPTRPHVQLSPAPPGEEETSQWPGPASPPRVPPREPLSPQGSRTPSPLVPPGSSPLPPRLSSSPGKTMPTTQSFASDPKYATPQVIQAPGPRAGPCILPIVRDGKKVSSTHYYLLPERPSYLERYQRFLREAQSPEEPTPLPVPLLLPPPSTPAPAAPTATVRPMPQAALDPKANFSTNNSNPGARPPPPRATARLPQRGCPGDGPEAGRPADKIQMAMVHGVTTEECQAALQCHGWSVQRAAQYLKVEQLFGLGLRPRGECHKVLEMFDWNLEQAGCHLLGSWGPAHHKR
T1 sequence (P14616 27-1297): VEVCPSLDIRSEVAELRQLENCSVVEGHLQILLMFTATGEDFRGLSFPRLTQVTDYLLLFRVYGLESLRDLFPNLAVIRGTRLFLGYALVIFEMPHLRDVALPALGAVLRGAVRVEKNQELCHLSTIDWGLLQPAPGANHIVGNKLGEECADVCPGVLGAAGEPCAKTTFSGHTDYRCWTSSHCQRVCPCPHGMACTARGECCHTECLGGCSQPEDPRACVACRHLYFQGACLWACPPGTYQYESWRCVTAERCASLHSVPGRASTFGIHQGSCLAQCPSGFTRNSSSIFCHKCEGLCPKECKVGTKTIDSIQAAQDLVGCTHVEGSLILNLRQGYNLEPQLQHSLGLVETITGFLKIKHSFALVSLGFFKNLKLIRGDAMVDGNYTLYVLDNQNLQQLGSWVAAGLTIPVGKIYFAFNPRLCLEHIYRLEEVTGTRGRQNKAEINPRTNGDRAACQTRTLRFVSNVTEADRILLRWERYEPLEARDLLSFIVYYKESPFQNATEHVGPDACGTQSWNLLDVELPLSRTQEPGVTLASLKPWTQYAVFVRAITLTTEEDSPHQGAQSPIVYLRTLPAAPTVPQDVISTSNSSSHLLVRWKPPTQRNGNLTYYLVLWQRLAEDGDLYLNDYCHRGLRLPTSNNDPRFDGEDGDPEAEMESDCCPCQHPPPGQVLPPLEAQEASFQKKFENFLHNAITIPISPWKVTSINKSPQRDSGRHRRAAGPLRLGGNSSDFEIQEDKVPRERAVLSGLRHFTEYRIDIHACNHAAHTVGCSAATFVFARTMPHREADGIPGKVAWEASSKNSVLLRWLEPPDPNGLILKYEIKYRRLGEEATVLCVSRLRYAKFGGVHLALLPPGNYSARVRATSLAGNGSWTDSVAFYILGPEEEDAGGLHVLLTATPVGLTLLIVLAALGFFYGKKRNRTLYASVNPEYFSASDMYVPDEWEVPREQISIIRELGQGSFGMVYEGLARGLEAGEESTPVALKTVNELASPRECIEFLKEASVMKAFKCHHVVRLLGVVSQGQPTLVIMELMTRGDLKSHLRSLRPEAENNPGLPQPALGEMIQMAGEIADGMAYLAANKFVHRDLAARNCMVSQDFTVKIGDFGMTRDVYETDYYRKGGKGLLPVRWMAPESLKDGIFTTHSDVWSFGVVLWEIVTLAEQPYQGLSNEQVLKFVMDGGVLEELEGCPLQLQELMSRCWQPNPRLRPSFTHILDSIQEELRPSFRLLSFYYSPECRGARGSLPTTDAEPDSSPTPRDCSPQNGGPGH
T32 sequence (P49761 whole entry): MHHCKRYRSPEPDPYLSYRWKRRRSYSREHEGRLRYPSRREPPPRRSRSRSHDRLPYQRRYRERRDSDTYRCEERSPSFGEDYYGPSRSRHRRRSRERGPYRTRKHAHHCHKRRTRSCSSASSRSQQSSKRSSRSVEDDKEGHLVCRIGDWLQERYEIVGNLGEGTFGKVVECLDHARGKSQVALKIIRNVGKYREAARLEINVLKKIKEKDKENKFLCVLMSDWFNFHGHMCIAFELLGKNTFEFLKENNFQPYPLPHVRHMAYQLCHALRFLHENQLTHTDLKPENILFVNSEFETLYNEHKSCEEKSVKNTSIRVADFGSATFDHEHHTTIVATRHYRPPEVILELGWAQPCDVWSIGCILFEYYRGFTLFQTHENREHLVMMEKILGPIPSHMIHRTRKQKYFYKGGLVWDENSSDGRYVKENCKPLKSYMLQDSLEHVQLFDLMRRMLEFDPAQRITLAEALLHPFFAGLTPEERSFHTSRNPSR
T19 sequence (O43293 whole entry): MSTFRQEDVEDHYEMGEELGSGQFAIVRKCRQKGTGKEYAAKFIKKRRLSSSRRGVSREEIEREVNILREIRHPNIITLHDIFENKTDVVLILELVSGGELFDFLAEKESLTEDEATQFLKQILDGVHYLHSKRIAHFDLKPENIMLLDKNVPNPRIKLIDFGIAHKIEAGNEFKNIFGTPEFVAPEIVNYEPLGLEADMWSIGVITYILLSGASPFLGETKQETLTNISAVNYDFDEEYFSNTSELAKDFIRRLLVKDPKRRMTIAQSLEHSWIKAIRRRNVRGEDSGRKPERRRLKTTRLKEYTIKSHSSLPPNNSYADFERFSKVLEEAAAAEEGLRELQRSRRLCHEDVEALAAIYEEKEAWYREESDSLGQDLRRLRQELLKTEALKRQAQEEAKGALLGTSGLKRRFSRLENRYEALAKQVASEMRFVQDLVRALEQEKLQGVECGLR
T30 sequence (P49137 whole entry): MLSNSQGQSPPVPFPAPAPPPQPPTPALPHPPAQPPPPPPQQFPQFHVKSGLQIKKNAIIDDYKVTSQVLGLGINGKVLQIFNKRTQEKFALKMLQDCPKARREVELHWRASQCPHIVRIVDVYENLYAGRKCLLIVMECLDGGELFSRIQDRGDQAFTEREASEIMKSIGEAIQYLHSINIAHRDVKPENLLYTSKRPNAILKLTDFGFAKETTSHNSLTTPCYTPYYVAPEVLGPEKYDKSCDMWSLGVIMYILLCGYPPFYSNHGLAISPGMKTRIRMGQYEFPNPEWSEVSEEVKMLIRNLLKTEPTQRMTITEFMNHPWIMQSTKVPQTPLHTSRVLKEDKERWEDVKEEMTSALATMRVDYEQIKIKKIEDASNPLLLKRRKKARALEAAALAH

CN(C)c1cc(-c2ccncc2)c(-c2ccc3ccccc3c2)nn1 [MW108, N, N-dimethyl-6-(naphthalen-2-yl)-5-(pyridin-4-yl)pyridazin-3-amine]
activity at 20 µM (IRR): 94%
IC50 (LOK): > 30 µM
activity at 20 µM (LOK): 48%
activity at 20 µM (GRK6): 98%
activity at 20 µM (mTOR/FKBP12): 100%
activity at 20 µM (EphA1): 97%
solubility at 24 h (Aqueous solubility; Aqueous Solubility (37 °C)): 0.058 mM (≈ 0.0189 mg/mL)
solubility at 24 h (Aqueous solubility; Aqueous Solubility (37 °C), HCl hydrate): 370 mM (≈ 121 mg/mL)
Aqueous Solubility (37ºC), HCl hydrate (Aqueous solubility; 24 h): ~400 mM
activity at 20 µM (JAK3): 90%
activity at 20 µM (Pim-2): 93%
activity at 20 µM (PDGFRα(V561D)): 114%
activity at 20 µM (Abl (Q252H)): 105%
activity at 20 µM (PKA): 74%
sensory threshold [1]: Sensory threshold was not affected regardless of treatment
activity at 20 µM (PIP5K1α): 104%
activity at 20 µM (FAK): 95%
activity at 20 µM (EGFR(L861Q)): 49%
activity at 20 µM (Met(Y1248D)): 93%
activity at 20 µM (Flt3(D835Y)): 90%
activity at 20 µM (GSK3α): 90%
activity at 20 µM (PKCη): 88%
activity at 20 µM (IGF-1R, activated): 104%
activity at 20 µM (ZIPK): 93%
activity at 20 µM (MEK1): 130%
activity at 20 µM [2]: 101%
activity at 20 µM (FGFR1(V561M)): 90%
activity at 20 µM (PKBβ): 98%
activity at 20 µM (Rsk2): 92%
activity at 20 µM (BTK): 97%
activity at 20 µM (ACK1): 100%
activity at 20 µM (Fms(Y969C)): 100%
activity at 20 µM (PDGFRα(D842V)): 89%
activity at 20 µM (Lyn(m)): 97%
activity at 20 µM (MAPKAP-K2): 103%
activity at 20 µM (EGFR): 79%
activity at 20 µM (CLK3): 102%
activity at 20 µM (Fgr): 92%
activity at 20 µM (EphA3): 101%

CN(C)c1cc(-c2ccncc2)c(-c2cccc3ccccc23)nn1 [MW181, N,N-dimethyl-6-(naphthalen-1-yl)-5-(pyridin-4-yl)pyridazin-3-amine]
activity at 20 µM (IRR): 108%
activity at 20 µM (LOK): 84%
activity at 20 µM (GRK6; [3]): 105%
activity at 20 µM (mTOR/FKBP12): 96%
activity at 20 µM (EphA1): 76%
Aqueous Solubility (37ºC), HCl hydrate (Aqueous solubility; hydrochloride hydrate form, 24 h): ~800 mM
solubility at 24 h (Aqueous solubility; compound (not the salt), 24 h, read-out: Aqueous Solubility (37ºC)): 0.205 mM
solubility at 24 h (Aqueous solubility; hydrochloride hydrate form, 24 h, read-out: Aqueous Solubility (37ºC), HCl hydrate): 840 mM (≈ 274 mg/mL)
activity at 20 µM (JAK3): 103%
activity at 20 µM (Pim-2): 103%
activity at 20 µM (PDGFRα(V561D); [3]): 103%
activity at 20 µM (Abl (Q252H)): 100%
activity at 20 µM (PKA): 142%
sensory threshold [1]: Sensory threshold was not affected regardless of treatment
activity at 20 µM (PIP5K1α): 102%
activity at 20 µM (FAK): 102%
activity at 20 µM (EGFR(L861Q)): 56%
activity at 20 µM (Met(Y1248D)): 94%
activity at 20 µM (Flt3(D835Y)): 100%
activity at 20 µM (GSK3α): 95%
activity at 20 µM (PKCη): 104%
activity at 20 µM (IGF-1R, activated): 87%
activity at 20 µM (ZIPK): 106%
activity at 20 µM (MEK1): 105%
activity at 20 µM [2]: 100%
activity at 20 µM (FGFR1(V561M)): 93%
activity at 20 µM (PKBβ): 102%
activity at 20 µM (Rsk2): 90%
activity at 20 µM (BTK): 98%
activity at 20 µM (ACK1): 106%
activity at 20 µM (Fms(Y969C)): 91%
activity at 20 µM (PDGFRα(D842V)): 104%
activity at 20 µM (Lyn(m)): 90%
activity at 20 µM (MAPKAP-K2): 103%
activity at 20 µM (EGFR): 103%
activity at 20 µM (CLK3): 101%
activity at 20 µM (Fgr): 90%
activity at 20 µM (EphA3): 102%
